Results reported in patent US7932262B2 (Novartis AG, priority 2006, dated 2011).
Like-named read-outs stand apart in the source and are kept apart here.

Columns and labels:
PDK1 kinase = target: T1, PDK1 kinase (Homo sapiens, UniProt O15530); experiment: PDK1 Kinase Alpha Screen Assay; assay type: biochemical
T1 sequence (O15530 1-556): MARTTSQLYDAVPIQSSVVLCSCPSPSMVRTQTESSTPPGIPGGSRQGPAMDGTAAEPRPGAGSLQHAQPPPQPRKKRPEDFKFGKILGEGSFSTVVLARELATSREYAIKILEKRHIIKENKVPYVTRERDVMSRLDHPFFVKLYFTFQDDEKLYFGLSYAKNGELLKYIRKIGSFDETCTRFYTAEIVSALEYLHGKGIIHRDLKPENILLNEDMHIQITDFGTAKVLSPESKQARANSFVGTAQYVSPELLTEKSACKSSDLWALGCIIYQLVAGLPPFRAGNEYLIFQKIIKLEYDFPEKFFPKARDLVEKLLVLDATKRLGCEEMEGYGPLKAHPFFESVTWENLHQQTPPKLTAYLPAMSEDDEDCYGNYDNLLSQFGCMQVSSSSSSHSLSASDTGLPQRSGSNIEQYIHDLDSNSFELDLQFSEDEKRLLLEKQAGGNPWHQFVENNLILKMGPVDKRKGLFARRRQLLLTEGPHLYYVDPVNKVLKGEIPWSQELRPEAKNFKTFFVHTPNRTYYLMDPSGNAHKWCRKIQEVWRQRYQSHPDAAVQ
Method in brief: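 Compound in DMSO added to PDK1-4 peptide; PDK1/ATP mix starts reaction (final 50 nM peptide, 10 uM ATP). Runs 3-18 hours, stopped with 90 mM EDTA buffer. Antibody/bead mix added, developed overnight at room temperature, then AlphaScreen signal read.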

PC-3 cells = experiment: Cell Proliferation Assay (Cell Titer Glo), PC-3 cell line; assay type: cell-based; conditions: Homo sapiens
Method in brief: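 PC-3 cells, 1000 cells/well, left to adhere 3-5 h, then exposed for 3 days at 37° C to compounds as 1:3 serial dilutions from 500× DMSO stocks diluted in growth medium. Medium then replaced with fresh medium and viability read by Cell Titer Glo luminescence.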

[1] = PC-3, PC3 cells, read-out: CPEC50 PC3
[2] = head of the second part of Table 4: BV11261, read-out: PDK1 BV11261
[3] = PDK1 Kinase Alpha Screen Assay, read-out: PDK1 IC50
[4] = PC-3, Cell Proliferation Assay, PC3, read-out: CPEC50 PC3
[5] = PC-3, 72 h, PC-3 cells, 3 days incubation, read-out: CP EC50 PC3

Row | Structure (SMILES) | IC50 (PDK1 kinase; [3]) [µM] | EC50 (PC-3 cells; [4]) [µM] | other results
1 | CS(=O)(=O)c1ccc(Nc2ncc3cccc(-c4ccc(NCCN5CCCC5)nc4)c3n2)cc1 [Compound 1028, N-(4-(methylsulfonyl)phenyl)-8-(6-(2-(pyrrolidin-1-yl)ethylamino)pyridin-3-yl)quinazolin-2-amine] | – | – | IC50 (PDK1 kinase; read-out: PDK1 IC50): < 5 µM; EC50 (PC-3 cells; [1]): 5 to 10 µM
2 | C#Cc1cc(OC2CCNCC2)c2nc(Nc3ccc(C(=O)N4CCOCC4)cc3)ncc2c1Cl [Compound 1032, (4-(5-chloro-6-ethynyl-8-(piperidin-4-yloxy)quinazolin-2-ylamino)phenyl)(morpholino)methanone] | – | – | IC50 (PDK1 kinase; [2]): < 5 µM; EC50 (PC-3 cells; [1]): < 5 µM
3 | COc1c(-c2cnn(C)c2)cc(Cl)c2cnc(Nc3ccc(C(=O)NC4CC4)cc3)nc12 [Compound 1038, 4-(5-chloro-8-methoxy-7-(1-methyl-1H-pyrazol-4-yl)quinazolin-2-ylamino)-N-cyclopropylbenzamide] | – | – | IC50 (PDK1 kinase; [2]): < 5 µM; EC50 (PC-3 cells; [1]): < 5 µM
4 | NS(=O)(=O)c1ccc(Nc2ncc3cccc(-c4ccc(NCCN5CCOCC5)nc4)c3n2)cc1 [Compound 953, 4-(8-(6-(2-morpholinoethylamino)pyridin-3-yl)quinazolin-2-ylamino)benzenesulfonamide] | – | – | IC50 (PDK1 kinase; read-out: PDK1 IC50): < 5 µM; EC50 (PC-3 cells; [1]): < 5 µM
5 | CC(C)N1CCC(Oc2cccc3cnc(Nc4cccc(C(F)(F)F)c4)nc23)CC1 [Compound 529, 8-(1-isopropylpiperidin-4-yloxy)-N-(3-(trifluoromethyl)phenyl)quinazolin-2-amine] | < 5 | < 5 | –
6 | COc1cc(Nc2ncc3ccc(OC4CCN(C(C)C)CC4)cc3n2)cc(OC)c1 [Compound 565, N-(3,5-dimethoxyphenyl)-7-(1-isopropylpiperidin-4-yloxy)quinazolin-2-amine] | 5 to 10 | 5 to 10 | –
7 | CC(C)N1CCC(Oc2cccc3cnc(Nc4ccc(C#N)cc4)nc23)CC1 [Compound 536, 4-(8-(1-isopropylpiperidin-4-yloxy)quinazolin-2-ylamino)benzonitrile] | < 5 | < 5 | –
8 | Fc1cccc(Nc2ncc3c(Cl)ccc(OC4CCNCC4)c3n2)c1 [Compound 600, 5-chloro-N-(3-fluorophenyl)-8-(piperidin-4-yloxy)quinazolin-2-amine] | < 5 | < 5 | –
9 | O=C(NCCN1CCCC1)c1ccc(Nc2ncc3cccc(OC4CCNCC4)c3n2)cc1F [Compound 497, 2-fluoro-4-(8-(piperidin-4-yloxy)quinazolin-2-ylamino)-N-(2-(pyrrolidin-1-yl)ethyl)benzamide] | < 5 | < 5 | –
10 | C#Cc1cc2cnc(Nc3ccc(C(=O)NC(C)C)cc3)nc2cc1OC1CCN(C(C)C)CC1 [Compound 636, 4-(6-ethynyl-7-(1-isopropylpiperidin-4-yloxy)quinazolin-2-ylamino)-N-isopropylbenzamide] | < 5 | < 5 | –
11 | Clc1cc(Nc2ncc3ccc(OC4CCNCC4)cc3n2)ccc1N1CCOCC1 [Compound 594, N-(3-chloro-4-morpholinophenyl)-7-(piperidin-4-yloxy)quinazolin-2-amine] | < 5 | < 5 | –
12 | CNC(=O)Cc1cccc(Nc2ncc3cccc(-c4ccc(NCCN5CCCC5)nc4)c3n2)c1 [Compound 401, N-methyl-2-(3-(8-(6-(2-(pyrrolidin-1-yl)ethylamino)pyridin-3-yl)quinazolin-2-ylamino)phenyl)acetamide] | < 5 | < 5 | –
13 | CC(C)N1CCC(Oc2cccc3cnc(Nc4ccc(Cl)cc4)nc23)CC1 [Compound 84] | – | – | IC50 (PDK1 kinase; read-out: PDK1 IC50): < 5 µM; EC50 (PC-3 cells; [5]): < 5 µM
14 | CC(C)Cn1cc(-c2ccc3cnc(Nc4ccc(S(=O)(=O)NCCN5CCCC5)cc4)nc3c2)cn1 [Compound 713, 4-(7-(1-isobutyl-1H-pyrazol-4-yl)quinazolin-2-ylamino)-N-(2-(pyrrolidin-1-yl)ethyl)benzenesulfonamide] | < 5 | – | EC50 (PC-3 cells; PC-3, Cell Proliferation Assay, PC3 cells, read-out: CPEC50 PC3): < 5 µM
15 | C#Cc1ccc(OC2CCNCC2)c2nc(Nc3ccc(S(N)(=O)=O)cc3)ncc12 [Compound 469, 4-(5-ethynyl-8-(piperidin-4-yloxy)quinazolin-2-ylamino)benzenesulfonamide] | < 5 | 5 to 10 | –
16 | O=C(O)c1ccc(Nc2ncc3cccc(OC4CCNCC4)c3n2)cc1F [Compound 441, 2-fluoro-4-(8-(piperidin-4-yloxy)quinazolin-2-ylamino)benzoic acid] | < 5 | 5 to 10 | –

Row | Structure (SMILES) | IC50 (PDK1 kinase; [3]) [µM] | EC50 (PC-3 cells; [4]) [µM] | other results
17 | CN1CCN(c2cccc(Nc3ncc4ccc(OC5CCNCC5)cc4n3)c2)CC1 [Compound 581, N-(3-(4-methylpiperazin-1-yl)phenyl)-7-(piperidin-4-yloxy)quinazolin-2-amine] | < 5 | < 5 | –
18 | CC(C)N1CCN(c2ccc(-c3cccc4cnc(Nc5ccc(S(N)(=O)=O)cc5)nc34)cn2)CC1 [Compound 956, 4-(8-(6-(4-isopropylpiperazin-1-yl)pyridin-3-yl)quinazolin-2-ylamino)benzenesulfonamide] | – | – | IC50 (PDK1 kinase; read-out: PDK1 IC50): < 5 µM; EC50 (PC-3 cells; [1]): < 5 µM
19 | CC(C)NCCCNc1ccc(-c2cccc3cnc(Nc4ccc(S(N)(=O)=O)cc4)nc23)cn1 [Compound 971, 4-(8-(6-(3-(isopropylamino)propylamino)pyridin-3-yl)quinazolin-2-ylamino)benzenesulfonamide] | – | – | IC50 (PDK1 kinase; read-out: PDK1 IC50): < 5 µM; EC50 (PC-3 cells; [1]): < 5 µM
20 | Cn1cc(-c2ccc3cnc(Nc4ccc(S(N)(=O)=O)cc4)nc3c2-c2ccc(NCCN3CCCC3)nc2)cn1 [Compound 945, 4-(7-(1-methyl-1H-pyrazol-4-yl)-8-(6-(2-(pyrrolidin-1-yl)ethylamino)pyridin-3-yl)quinazolin-2-ylamino)benzenesulfonamide] | – | – | IC50 (PDK1 kinase; read-out: PDK1 IC50): < 5 µM; EC50 (PC-3 cells; [1]): < 5 µM
21 | CN1CCC(Nc2ccc3cnc(Nc4ccc(N5CCOCC5)c(F)c4)nc3c2)CC1 [Compound 368, N2-(3-fluoro-4-morpholinophenyl)-N7-(1-methylpiperidin-4-yl)quinazoline-2,7-diamine] | < 5 | < 5 | –
22 | c1ccc(Nc2ncc3cccc(OC4CCNCC4)c3n2)cc1 [Compound 479, N-phenyl-8-(piperidin-4-yloxy)quinazolin-2-amine] | < 5 | < 5 | –
23 | O=C(c1cc(Nc2ncc3cccc(OC4CCNCC4)c3n2)ccc1F)N1CCOCC1 [Compound 475, (2-fluoro-5-(8-(piperidin-4-yloxy)quinazolin-2-ylamino)phenyl)(morpholino)methanone] | < 5 | 5 to 10 | –
24 | O=C(c1ccc(Nc2ncc3c(Cl)ccc(NC4CCNCC4)c3n2)cc1)N1CCOCC1 [Compound 693, (4-(5-chloro-8-(piperidin-4-ylamino)quinazolin-2-ylamino)phenyl)(morpholino)methanone] | < 5 | < 5 | –
25 | Cc1ccc(OC2CCNCC2)c2nc(Nc3ccc(C(=O)NC(C)C)cc3)ncc12 [Compound 340, N-isopropyl-4-(5-methyl-8-(piperidin-4-yloxy)quinazolin-2-ylamino)benzamide] | < 5 | 5 to 10 | –
26 | COc1cccc(Nc2ncc3c(Cl)ccc(OC4CCNCC4)c3n2)c1 [Compound 380, 5-chloro-N-(3-methoxyphenyl)-8-(piperidin-4-yloxy)quinazolin-2-amine] | < 5 | < 5 | –
27 | Cc1ccc(OC2CCNCC2)c2nc(Nc3ccc(S(=O)(=O)N4CCOCC4)cc3)ncc12 [Compound 367, 5-methyl-N-(4-(morpholinosulfonyl)phenyl)-8-(piperidin-4-yloxy)quinazolin-2-amine] | < 5 | 5 to 10 | –
28 | CN1CCC(CNc2ccc(-c3cccc4cnc(Nc5ccc(S(N)(=O)=O)cc5)nc34)cn2)CC1 [Compound 975, 4-(8-(6-((1-methylpiperidin-4-yl)methylamino)pyridin-3-yl)quinazolin-2-ylamino)benzenesulfonamide] | – | – | IC50 (PDK1 kinase; read-out: PDK1 IC50): < 5 µM; EC50 (PC-3 cells; [1]): < 5 µM
29 | CNS(=O)(=O)Cc1ccc(Nc2ncc3cccc(OC4CCN(C(C)C)CC4)c3n2)cc1 [Compound 82, C-{4-[8-(1-Isopropyl-piperidin-4-yloxy)-quinazolin-2-ylamino]-phenyl}-N-methyl-methanesulfonamide] | – | – | IC50 (PDK1 kinase; read-out: PDK1 IC50): < 5 µM; EC50 (PC-3 cells; [5]): < 5 µM
30 | CNS(=O)(=O)Cc1ccc(Nc2ncc3cccc(-c4ccc(NCCN5CCCC5)nc4)c3n2)cc1 [Compound 998, N-methyl-1-(4-(8-(6-(2-(pyrrolidin-1-yl)ethylamino)pyridin-3-yl)quinazolin-2-ylamino)phenyl)methanesulfonamide] | – | – | IC50 (PDK1 kinase; read-out: PDK1 IC50): < 5 µM; EC50 (PC-3 cells; [1]): < 5 µM
31 | O=C(c1ccc(Nc2ncc3cccc(OC4CCNCC4)c3n2)cc1F)N1CCOCC1 [Compound 447, (2-fluoro-4-(8-(piperidin-4-yloxy)quinazolin-2-ylamino)phenyl)(morpholino)methanone] | < 5 | < 5 | –
